Laboratory results as given in US5208236A, “N-(acylaminomethyl)glutaryl amino acids and use” (Schering Corporation, priority 1992, dated 1993).

Tests used:
[1] = target: neutral endopeptidase (NEP, EC 3.4.24.11) (Homo sapiens, UniProt P08473); assay: NEP inhibition in vitro (IC50); format: biochemical
Protocol: (§1) The ACE inhibitory activity of the compounds of the present invention is determined via in vitro tests using standard test procedures for ACE inhibition well known to those skilled in the art. Similarly, NEP inhibitory activity is determined via in vitro tests using standard test procedures for NEP inhibition well known to those skilled in the art.

[2] = target: angiotensin converting enzyme (ACE) (Homo sapiens, UniProt P12821); assay: ACE inhibition in vitro (IC50); format: biochemical
Chain of angiotensin converting enzyme (ACE) (P12821 30-1306, species assumed): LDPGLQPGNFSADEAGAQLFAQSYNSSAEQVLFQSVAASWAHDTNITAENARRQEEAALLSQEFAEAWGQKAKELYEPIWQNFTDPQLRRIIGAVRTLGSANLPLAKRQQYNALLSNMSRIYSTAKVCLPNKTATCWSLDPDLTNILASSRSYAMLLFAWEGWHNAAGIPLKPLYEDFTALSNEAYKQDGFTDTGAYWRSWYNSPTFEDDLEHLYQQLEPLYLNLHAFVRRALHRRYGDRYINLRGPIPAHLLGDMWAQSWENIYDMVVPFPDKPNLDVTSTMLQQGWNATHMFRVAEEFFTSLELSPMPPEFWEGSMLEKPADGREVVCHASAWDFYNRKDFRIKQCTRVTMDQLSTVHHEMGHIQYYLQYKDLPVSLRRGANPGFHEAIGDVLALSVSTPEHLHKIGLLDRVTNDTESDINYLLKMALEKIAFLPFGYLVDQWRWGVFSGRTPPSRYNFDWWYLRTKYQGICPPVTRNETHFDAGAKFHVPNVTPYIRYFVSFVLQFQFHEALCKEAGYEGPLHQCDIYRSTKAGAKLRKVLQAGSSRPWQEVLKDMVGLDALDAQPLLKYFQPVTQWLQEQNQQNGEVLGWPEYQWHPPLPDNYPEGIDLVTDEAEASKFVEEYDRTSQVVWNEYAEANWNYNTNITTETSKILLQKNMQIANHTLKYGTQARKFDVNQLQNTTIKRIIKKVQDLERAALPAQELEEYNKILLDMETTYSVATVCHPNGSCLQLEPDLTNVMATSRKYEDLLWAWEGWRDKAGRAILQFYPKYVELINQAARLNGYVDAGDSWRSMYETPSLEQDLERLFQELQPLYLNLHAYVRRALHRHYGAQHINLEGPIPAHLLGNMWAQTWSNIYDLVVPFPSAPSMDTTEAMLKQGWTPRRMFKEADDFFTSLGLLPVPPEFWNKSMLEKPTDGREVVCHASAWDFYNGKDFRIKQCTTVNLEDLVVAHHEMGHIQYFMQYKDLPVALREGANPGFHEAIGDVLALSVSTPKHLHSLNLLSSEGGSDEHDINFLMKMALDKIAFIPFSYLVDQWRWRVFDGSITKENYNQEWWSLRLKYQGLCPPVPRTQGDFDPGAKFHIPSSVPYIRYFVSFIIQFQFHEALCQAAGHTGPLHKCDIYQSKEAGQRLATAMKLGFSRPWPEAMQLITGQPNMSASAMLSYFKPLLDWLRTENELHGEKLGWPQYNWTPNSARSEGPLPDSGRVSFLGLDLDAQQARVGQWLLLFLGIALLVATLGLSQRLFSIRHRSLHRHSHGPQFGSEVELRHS
Protocol: as §1

[3] = tested on: angiotensin I (AI) challenge; assay: A1 Challenge Assay; format: in vivo, male Sprague-Dawley rats

Chain of neutral endopeptidase (NEP, EC 3.4.24.11) (P08473 whole entry, species assumed): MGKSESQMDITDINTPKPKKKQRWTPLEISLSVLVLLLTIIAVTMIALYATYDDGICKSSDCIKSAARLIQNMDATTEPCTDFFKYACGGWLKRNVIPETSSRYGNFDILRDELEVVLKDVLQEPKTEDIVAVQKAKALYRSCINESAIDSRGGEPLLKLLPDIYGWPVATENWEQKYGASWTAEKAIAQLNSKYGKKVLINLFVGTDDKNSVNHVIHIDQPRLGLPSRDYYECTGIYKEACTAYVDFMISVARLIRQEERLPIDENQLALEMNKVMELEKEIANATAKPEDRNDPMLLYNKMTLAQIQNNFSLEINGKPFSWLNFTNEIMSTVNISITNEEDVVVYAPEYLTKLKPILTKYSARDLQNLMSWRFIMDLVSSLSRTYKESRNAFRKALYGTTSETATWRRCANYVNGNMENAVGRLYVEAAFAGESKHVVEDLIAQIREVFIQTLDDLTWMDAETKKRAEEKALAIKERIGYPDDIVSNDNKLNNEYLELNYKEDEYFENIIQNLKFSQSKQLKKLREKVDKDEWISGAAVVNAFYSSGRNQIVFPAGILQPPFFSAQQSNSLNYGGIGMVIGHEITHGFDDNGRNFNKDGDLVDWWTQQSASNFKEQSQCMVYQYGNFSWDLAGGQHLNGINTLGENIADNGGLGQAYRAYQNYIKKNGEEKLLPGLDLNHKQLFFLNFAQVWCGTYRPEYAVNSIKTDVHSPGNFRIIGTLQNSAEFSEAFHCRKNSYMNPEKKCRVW

COC(=O)N[C@@H](CCCCN)C(=O)NC[C@H](CC1(C(=O)N[C@@H](Cc2ccc(O)cc2)C(=O)O)CCCC1)C(=O)O [NH2 C(O) CH3 O]
IC50 [1]: 33 nM
IC50 [2]: 60 nM
A1 Chall. (% inhibition) ([3]; dose 30 sc): 92%

CN(C)S(=O)(=O)N[C@@H](CCCCN)C(=O)NC[C@H](CC1(C(=O)N[C@@H](Cc2ccc(O)cc2)C(=O)O)CCCC1)C(=O)O [NH2 SO2 (CH3)2 NH]
IC50 [1]: 32 nM

CS(=O)(=O)N(CCCN)CC(=O)NC[C@H](CC1(C(=O)N[C@@H](Cc2ccc(O)cc2)C(=O)O)CCCC1)C(=O)O [NH2 SO2 CH3]
IC50 [1]: 1 nM
IC50 [2]: 6 nM
A1 Chall. (% inhibition) ([3]; dose 30 sc): 81%

CN(C)C(=O)N[C@@H](CCCCNC(=O)OCc1ccccc1)C(=O)NC[C@H](CC1(C(=O)N[C@@H](Cc2ccc(O)cc2)C(=O)O)CCCC1)C(=O)O [CbzNH C(O) (CH3)2 NH]
IC50 [1]: 2 nM
IC50 [2]: 450 nM
A1 Chall. (% inhibition) ([3]; dose 30 sc): 88%

NCCCC[C@H](NC(=O)N1CCOCC1)C(=O)NC[C@H](CC1(C(=O)N[C@@H](Cc2ccc(O)cc2)C(=O)O)CCCC1)C(=O)O [NH2 C(O) drawing 39]
IC50 [1]: 9 nM
IC50 [2]: 8 nM

CS(=O)(=O)N(CCCNC(=O)OCc1ccccc1)CC(=O)NC[C@H](CC1(C(=O)N[C@@H](Cc2ccc(O)cc2)C(=O)O)CCCC1)C(=O)O [CbzNH SO2 CH3]
IC50 [1]: 2 nM
IC50 [2]: 40 nM
A1 Chall. (% inhibition) ([3]; dose 10 sc): 100%

CN(C)C(=O)N[C@@H](CCCCN)C(=O)NC[C@H](CC1(C(=O)N[C@@H](Cc2ccc(O)cc2)C(=O)O)CCCC1)C(=O)O [NH2 C(O) (CH3)2 NH]
IC50 [1]: 1 nM
IC50 [2]: 15 nM

COC(=O)N[C@@H](CCCCNC(=O)OCc1ccccc1)C(=O)NC[C@H](CC1(C(=O)N[C@@H](Cc2ccc(O)cc2)C(=O)O)CCCC1)C(=O)O [CbzNH C(O) CH3 O]
IC50 [1]: 8 nM
IC50 [2]: 15 nM
A1 Chall. (% inhibition) ([3]; dose 30 sc): 49%

O=C(NCCCC[C@H](NC(=O)N1CCOCC1)C(=O)NC[C@H](CC1(C(=O)N[C@@H](Cc2ccc(O)cc2)C(=O)O)CCCC1)C(=O)O)OCc1ccccc1 [CbzNH C(O) drawing 38]
IC50 [1]: 2 nM
IC50 [2]: 2 nM

CN(C)S(=O)(=O)N[C@@H](CCCCNC(=O)OCc1ccccc1)C(=O)NC[C@H](CC1(C(=O)N[C@@H](Cc2ccc(O)cc2)C(=O)O)CCCC1)C(=O)O [CbzNH SO2 (CH3)2 NH]
IC50 [1]: 1 nM
IC50 [2]: 1 nM
